Assay results published in US20100087649A1, “QUINOLINONE DERIVATIVES” (priority 2006, published 2010).

Key:
[1] = test system: wild-type HIV-IIIB strain; assay: Antiviral analysis EGFP: anti-HIV activity in MT4 LTR-EGFP cells; type: cell-based, HIV-1; conditions: Human immunodeficiency virus 1, 72 h, fluorescence of HIV-infected cells reduced by 50%, three days after infection
In short: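 MT4 T-cells carrying an HIV-1 LTR-driven EGFP reporter were infected with HIV-IIIB; fluorescence was measured by scanning microscope image analysis three days post-infection. EC50 (μM) is the concentration cutting infected-cell fluorescence by 50%; CC50 is the same on mock-infected cells.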

[2] = Cytotoxicity in mock-infected MT4 CMV-EGFP cells; type: cell-based, human; conditions: human, fluorescence reduced by 50%

Cc1ccc(-n2c(=O)c(C#N)c(N)c3ccc(-c4ccccn4)cc32)cc1C#N [compound 123]
EC50 [1]: > 100 µM
CC50 at 3 days [2]: > 100 µM

COc1ccc2c(N)c(C#N)c(=O)n(-c3ccc(C)c(C#N)c3)c2c1 [compound 145]
EC50 [1]: 3.01 µM
CC50 at 3 days [2]: > 100 µM

Cc1ccc(-n2c(=O)c(C#N)cc3ccc(OCCCN4CCCC4)cc32)cc1C#N [compound 148]
EC50 [1]: 0.64 µM
CC50 at 3 days [2]: 51.5 µM

N#Cc1cc2ccc(=O)[nH]c2n(-c2ccc([N+](=O)[O-])cc2)c1=O [compound 100]
EC50 [1]: > 32 µM
CC50 at 3 days [2]: > 32 µM

Cc1ccc(-n2c(=O)c(C#N)cc3ccc(-c4cc[nH]c4)cc32)cc1C#N [compound 150]
EC50 [1]: 0.56 µM
CC50 at 3 days [2]: > 100 µM

N#Cc1cc2ccc(-c3ccccc3)cc2n(-c2ccc([N+](=O)[O-])cc2)c1=O [compound 28]
EC50 [1]: 1.34 µM
CC50 at 3 days [2]: > 32 µM

N#Cc1cc2cccnc2n(-c2ccc([N+](=O)[O-])cc2)c1=O [compound 99]
EC50 [1]: 19.3 µM
CC50 at 3 days [2]: > 32 µM

N#Cc1cc2ccc(OCCNCCO)cc2n(-c2ccc([N+](=O)[O-])cc2)c1=O [compound 71]
EC50 [1]: > 32 µM
CC50 at 3 days [2]: > 32 µM

N#Cc1cc2ccc(OP(=O)(O)O)cc2n(-c2ccc([N+](=O)[O-])cc2)c1=O [compound 70]
EC50 [1]: 17.5 µM
CC50 at 3 days [2]: > 32 µM

COc1ccc2cc(C#N)c(=O)n(-c3ccc([N+](=O)[O-])cc3)c2c1 [compound 9]
EC50 [1]: 2.48 µM
CC50 at 3 days [2]: > 32 µM

Cc1ccc(-n2c(=O)c(C#N)cc3ccc(Br)cc32)cc1C#N [compound 149]
EC50 [1]: 2.74 µM
CC50 at 3 days [2]: > 100 µM

N#Cc1c(N)c2ccc(Cl)cc2n(-c2ccc(Cl)nc2)c1=O [compound 103]
EC50 [1]: 3.61 µM
CC50 at 3 days [2]: 85.2 µM

N#Cc1cc2ccc(O)cc2n(-c2ccc([N+](=O)[O-])cc2)c1=O [compound 10]
EC50 [1]: 13.3 µM
CC50 at 3 days [2]: > 32 µM

N#Cc1cc2ccccc2n(-c2ccc([N+](=O)[O-])cc2)c1=O [compound 1]
EC50 [1]: 2.89 µM
CC50 at 3 days [2]: > 100 µM

COc1ccc2c(c1)cc(C#N)c(=O)n2-c1ccc([N+](=O)[O-])cc1 [compound 83]
EC50 [1]: > 32 µM
CC50 at 3 days [2]: > 32 µM

Cc1ccc(-n2c(=O)c(C#N)c(NCCN)c3ccccc32)cc1C#N [compound 164]
EC50 [1]: 0.63 µM
CC50 at 3 days [2]: 12.9 µM

N#Cc1cc2ccc(-n3cccc3)cc2n(-c2ccc([N+](=O)[O-])cc2)c1=O [compound 25]
EC50 [1]: 0.95 µM
CC50 at 3 days [2]: 97.2 µM

N#Cc1c(N)c2ccccc2n(-c2ccc([N+](=O)[O-])cc2)c1=O [compound 101]
EC50 [1]: > 32 µM
CC50 at 3 days [2]: > 32 µM

Cc1ccc(-n2c(=O)c(C#N)c(N)c3ccc(Br)cc32)cc1C#N [compound 121]
EC50 [1]: 0.75 µM
CC50 at 3 days [2]: 55.2 µM
